Values of other authors, collected in US8518458B2, “Tea-derived compositions and methods of using same for cardiovascular health” (Immune Guard, LLC, priority 2006, dated 2013).

Conditions: spontaneously hypertensive rats

CCNC(=O)CC[C@H](N)C(=O)O [L-theanine, γ-glutamylethylamide]
effect on blood pressure: reduces blood pressure
